Measurements from ChEMBL document CHEMBL1201862, “PubChem BioAssay data set” (2004).
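Protocol summary: plate cells (96-well), add compound at 5 concentrations, incubate 48 h, interpolate endpoints linearly. GI50: concentration for 50% inhibition of growth.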 The source made the active and inactive calls. Cut-off read from the data, not from the text of the source: active = GI50 up to about 1.1 µM and inactive = higher.

Tests used:
Assay in all cases: growth of human tumour cells (NCI), 48 h
786-0 = test system: 786-0
ACHN = test system: ACHN
CAKI-1 = test system: CAKI-1
COLO 205 = test system: COLO 205
HCC 2998 = test system: HCC 2998
HCT-15 = test system: HCT-15
HL-60 = test system: HL-60
IGROV-1 = test system: IGROV-1
Malme-3M = test system: Malme-3M
NCI-H23 = test system: NCI-H23
SF-539 = test system: SF-539
SN12C = test system: SN12C
TK-10 = test system: TK-10

Compound | GI50 (786-0) | GI50 (ACHN) | GI50 (CAKI-1) | GI50 (COLO 205) | GI50 (HCC 2998) | GI50 (HCT-15) [µM] | GI50 (HL-60) | GI50 (IGROV-1) | GI50 (Malme-3M) | GI50 (NCI-H23) | GI50 (SF-539) | GI50 (SN12C) | GI50 (TK-10)
C(/COc1cccnc1)=N\NC1=NCCN1 | > 100 µM (inactive) | > 100 µM (inactive) | > 100 µM (inactive) | > 100 µM (inactive) | > 100 µM (inactive) | > 100 | > 100 µM (inactive) | > 100 µM (inactive) | > 100 µM (inactive) | > 100 µM (inactive) | > 100 µM (inactive) | > 100 µM (inactive) | > 100 µM (inactive)
O/N=C/c1ccc(O)c(O)c1 | > 100 µM (inactive) | 39.9 µM (inactive) | 67.8 µM (inactive) | 55.8 µM (inactive) | > 100 µM (inactive) | 44.1 | 12.8 µM (inactive) | 65 µM (inactive) | > 100 µM (inactive) | > 100 µM (inactive) | > 100 µM (inactive) | > 100 µM (inactive) | > 100 µM (inactive)
N#CC1C(=O)NC(=O)C1=O (stereo unspecified) | > 100 µM (inactive) | > 100 µM (inactive) | > 100 µM (inactive) | > 100 µM (inactive) | > 100 µM (inactive) | > 100 |  | > 100 µM (inactive) | > 100 µM (inactive) | > 100 µM (inactive) | > 100 µM (inactive) | > 100 µM (inactive) | > 100 µM (inactive)
CN(C)CC/C(=N\Nc1c(Cl)cccc1Cl)c1ccccc1 | 15.3 µM (inactive) | 16 µM (inactive) |  | 15.6 µM (inactive) |  | 17.7 | 16.3 µM (inactive) | 26.6 µM (inactive) | 21 µM (inactive) | 15.6 µM (inactive) | 16.9 µM (inactive) | 28.7 µM (inactive) | 16.8 µM (inactive)
CCOc1ccc(/C=N\N2C(=O)c3ccccc3C2=O)cc1 | > 100 µM (inactive) | > 100 µM (inactive) | > 100 µM (inactive) |  | > 100 µM (inactive) | > 100 | > 100 µM (inactive) | > 100 µM (inactive) | > 100 µM (inactive) | > 100 µM (inactive) | > 100 µM (inactive) | > 100 µM (inactive) | > 100 µM (inactive)
CCN1/C(=C/C(C)=C/c2sc3ccccc3[n+]2CC)Sc2ccccc21 | 0.418 µM (active) | 0.295 µM (active) | 0.203 µM (active) | 0.142 µM (active) | 0.255 µM (active) | 0.395 | 0.0405 µM (active) | 0.279 µM (active) | 0.37 µM (active) | 0.0415 µM (active) | 0.265 µM (active) | 0.234 µM (active) | 0.324 µM (active)
CC12CC(=O)OC(Cc3ccccc31)O2 (stereo unspecified) | > 100 µM (inactive) | > 100 µM (inactive) |  | > 100 µM (inactive) | > 100 µM (inactive) |  | > 100 µM (inactive) | > 100 µM (inactive) | > 100 µM (inactive) | > 100 µM (inactive) | > 100 µM (inactive) | > 100 µM (inactive) | > 100 µM (inactive)
O=C1NN=CN2C(=O)CCC12 (stereo unspecified) | > 100 µM (inactive) | > 100 µM (inactive) | > 100 µM (inactive) | > 100 µM (inactive) | > 100 µM (inactive) | > 100 | > 100 µM (inactive) | > 100 µM (inactive) |  | > 100 µM (inactive) | > 100 µM (inactive) | > 100 µM (inactive) | > 100 µM (inactive)
CC(C)OCN1COCN/C1=N/C#N | 98.6 µM (inactive) | > 100 µM (inactive) | > 100 µM (inactive) | 20.8 µM (inactive) | > 100 µM (inactive) | 17.7 | > 100 µM (inactive) | > 100 µM (inactive) | > 100 µM (inactive) | > 100 µM (inactive) | > 100 µM (inactive) | > 100 µM (inactive) | > 100 µM (inactive)
O=CN/C=C/c1ccc(O)c(O)c1 | > 100 µM (inactive) | > 100 µM (inactive) | > 100 µM (inactive) | > 100 µM (inactive) | > 100 µM (inactive) | > 100 | 55 µM (inactive) | > 100 µM (inactive) | > 100 µM (inactive) | > 100 µM (inactive) | > 100 µM (inactive) | > 100 µM (inactive) | > 100 µM (inactive)
O=c1oc2c3ccc4ccccc4c3n(Cc3nc4ccccc4[nH]3)c2c2ccccc12 | 7.16 µM (inactive) | 3.89 µM (inactive) | 3.77 µM (inactive) | 12.7 µM (inactive) | 40.4 µM (inactive) | 1.37 | 3.7 µM (inactive) | > 29.3 µM (inactive) | > 100 µM (inactive) | 4.95 µM (inactive) | 3.54 µM (inactive) | 3.72 µM (inactive) | > 100 µM (inactive)
